Tested on: C8161 cells
Test: Soft agar / anchorage independent growth assay, C8161 cells
Type: cell-based, human
Settings: C8161 treated with anti-Nodal Morpholino
Procedure: An in vitro colony forming assay was used to analyze colony-forming ability of poorly aggressive C81-61 cells, aggressive C8161 cells, C8161 cells treated with MO^Nodal and C8161 cells treated with MO^Nodal and rescued with recombinant Nodal (100 ng/mL). The assay was conducted using 50,000 cells suspended in 0.35% agarose in RPMI containing 10% serum, which were plated into 6-well dishes on 0.5% agar in the same medium. Colonies grew, and pictures were taken at day 7. After 2 weeks, colonies were stained with Crystal Violet and counted.
The derivation and phenotypic characteristics of the human melanoma cell lines have been previously described. Seftor, et. al., 2002, Clin. Experim. Metastas. 19:233-246; Seftor, et. al., 2005 Cancer Res. 65:10164-10169. The melanoma cell lines are maintained in RPMI 1640 medium (Invitrogen) supplemented with 10% fetal bovine serum (FBS, Gemini Bioproducts) and 0.1% gentamycin sulfate with the exception of C81-61 cells which are maintained in Ham's FIO medium supplemented with 15% FBS, 1X Mito+ (BD Bioscience) and gentamycin sulfate. Normal human melanocytes are purchased (Cascade Biologics) or isolated from neonatal foreskins. Seftor, et. al., 2005. A single cell suspension is prepared, added to plastic flasks for the adherence of melanocytes and the cells propagated in Medium 254 with Human Melanocyte Growth Supplement (Cascade Biologics) including, 100 units/ml penicillin, 100 μg/ml streptomycin, and 250 ng/mL amphotericin B. The human embryonic stem cell lines are cultured as previously described. Thomson, et. al., 1998, Science 282:1145-1147. Briefly, cells are grown in 6-well plates precoated with 0.1% porcine gelatin and containing 1.9×10^5 irradiated mouse embryonic fibroblasts (strain CF-1; ATCC) per well. The cells are maintained in medium containing DMEM/F12 (1:1), 20% knock-out serum replacement, non-essential minimal amino acids, L-glutamine (Invitrogen), […], and 4 ng/ml FGF-2 (R&D Systems), and are split with collagenase (1 mg/ml) before the colonies begin to overlap. The cultures are determined to be free of mycoplasma contamination using a PCR-based assay (Roche). The normal human neonatal epidermal melanocytes (HEMn-LP; Cascade Biologics, Portland Oreg.), myoepithelial cells (Hs 578 Bst; American Type Culture Collection (ATCC), Manassas, Va.) and primary mammary epithelial cells (HMEpC; Cell Applications Inc., San Diego Calif.) were maintained as per distributor instructions. Live umbilical cord blood stem cells (SC00125; New Jersey Stem Cell Resource at Coriell Institute for Medical Research) amniotic fluid derived stem cells (GM00473, GM00957A) and adult bone marrow derived mesenchymal stem cells (Stem Cell Technologies, Vancouver BC, Canada) were maintained under the recommended conditions. The HTR-8/SVneo is a well characterized immortalized human extravillous cytotrophoblast cell line, and was maintained as previously described Graham et al., 1993, Exp. Cell Res. 206:204-211. […] The expression vector for wild type Nodal was kindly provided by Dr. Daniel Constam (Swiss Institute for Experimental Cancer Research (ISREC), Epalinges, Switzerland) and was transfected into C81-61 cells as previously described. Le Good et al., 2005, Curr. Biol. 15:31-36. […]

## MO^Nodal: FITC-conjugated anti-sense Morpholino to Nodal, 5′-AAGCAGCACCTCCAGCCCTTATATC-3′ [SEQ ID NO: 20] (all phosphorodiamidate morpholino (PMO); FITC conjugated, position not given here)
After 2 weeks, n=16, p<0.001
  reduction of colony formation: 57%
Soft agar
  ability to undergo anchorage-independent growth: significantly diminished

Source: US8106004B2, “Methods of inhibiting tumor cell aggressiveness using the microenvironment of human embryonic stem cells” (Children's Memorial Hospital, priority 2006, dated 2012)
